The text below walks through data of patent US8288410B2, “3-substituted quinolinium and 7H-indolo[2,3-c]quinolinium salts as new antiinfectives” (Florida Agricultural and Mechanical University, priority 2008, dated 2012).

The test system of data set [1] is Candida albicans ATTC 90028. Put plainly: Antifungal susceptibility testing, Candida albicans. It is filed as cell-based. Summed up: (§1)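 Modified NCCLS broth microdilution, samples serially diluted from 20 μg/mL top concentration, inocula per 0.5 McFarland (C. albicans in SDB or RPMI 1640; C. neoformans in SDB; A. fumigatus in YM broth or RPMI-1640 + 5% Alamar Blue). IC50 from percent growth versus concentration; MIC read visually as lowest concentration without detectable growth.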

Data set [2] has as its system Vero Cells. Description: Cytotoxicity, Vero cells. Type of data set: cell-based.
The test system of data set [3] is Cryptococcus neoformans ATCC 90113. Put plainly: Antifungal susceptibility testing, Cryptococcus neoformans. Type of data set: cell-based. Summed up:
as §1

Data set [4] concerns MRSA. Description: Antibacterial susceptibility testing, MRSA. It is filed as cell-based, methicillin resistant Staphylococcus aureus. Particulars: for MRS IC50 / MRS MFC / MRS MIC: Table 1. Summed up:
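Each plate carried growth (saline only), solvent and blank (media only) controls, and Ciprofloxacin was the drug control. Plates were read before and after final incubation. MIC, the lowest concentration showing no detectable growth, was judged visually, and IC50 was obtained by plotting percent growth against concentration.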

In data set [5] the test system is Aspergillus fumigatus ATCC 90906. Description: Antifungal susceptibility testing, Aspergillus fumigatus. It is filed as cell-based. Summed up:
as §1

SMILES strings stand for the structures. ≈ marks a conversion by molar mass, not a printed value. Like-named read-outs stand apart in the source and are kept apart here.

As to `C[n+]1cc(N(CCCCCC2CCCCC2)c2ccc(C(F)(F)F)cc2)cc2ccccc21.[I-]` [JRE-3-20-1], in data set [1] (Table 2), the “Ca IC50” value came out at 0.65 µg/mL, the “Ca MFC” value was determined as 3.1 µg/mL and the “Ca MIC” value was 1.6 µg/mL. The “TC50 Vero Cells” value in data set [2] (Table 2) was 25 µg/mL. In addition, in data set [3] (Table 2), the “Cn IC50” value turned out to be 0.65 µg/mL, the “Cn MFC” value came out at 3.1 µg/mL and the “Cn MIC” value was determined as 1.6 µg/mL. In data set [4] (Table 2), the “MRSA IC50” value came to 0.40 µg/mL, the “MRSA MFC” value worked out at 1.6 µg/mL and the “MRSA MIC” value was 0.78 µg/mL. For the same compound, in data set [5], the “A fu MFC” value is 6.3 µg/mL and the “A fu MIC” value turned out to be 3.1 µg/mL. Besides, the “A fu IC50” value in data set [5] (Table 2, Aspergillus fumigatus) turned out to be 1.0 µg/mL.
As for `FC(F)(F)c1cccc(Sc2cc3ccccc3[n+](CCCCCc3ccccc3)c2)c1.[I-]` [XYZ-IV-54], in data set [1] (Table 1), the “Ca IC50” value amounted to 6.0 µg/mL, the “Ca MFC” value is “— ((-) = >20 μg/mL)” and the “Ca MIC” value came out at 10 µg/mL. Also, the “TC50 Vero Cells” value in data set [2] (Table 1) is “NC (NC = Not toxic at 10 μg/mL)”. Further, in data set [3] (Table 1), the “Cn IC50” value was found to be 1.5 µg/mL, the “Cn MFC” value was 20 µg/mL and the “Cn MIC” value came out at 2.5 µg/mL. Moreover, in data set [4], the “MRS IC50” value came to 0.85 µg/mL, the “MRS MFC” value amounted to 10 µg/mL and the “MRS MIC” value was determined as 2.5 µg/mL. Moreover, in data set [5] (Table 1, Aspergillus fumigatus), the “A fu IC50” value was 1.5 µg/mL, the “A fu MFC” value is given as “— ((-) = >20 μg/mL)” and the “A fu MIC” value stood at 5.0 µg/mL.
In the case of `Clc1cccc(Nc2cc3ccccc3[n+](CCCCCC3CCCCC3)c2)c1.[I-]` [JRE-3-88-1], in data set [1] (Table 2), the “Ca IC50” value was 2.0 µg/mL, the “Ca MFC” value was 13 µg/mL and the “Ca MIC” value came to 6.3 µg/mL. Moreover, the “TC50 Vero Cells” value in data set [2] (Table 2) came to 12.5 µg/mL. Besides, in data set [3] (Table 2), the “Cn IC50” value is 2.0 µg/mL, the “Cn MFC” value worked out at 50 µg/mL and the “Cn MIC” value stood at 3.1 µg/mL. In data set [4] (Table 2), the “MRSA IC50” value stood at 0.55 µg/mL, the “MRSA MFC” value is 1.6 µg/mL and the “MRSA MIC” value amounted to 0.78 µg/mL. Also, in data set [5], the “A fu MIC” value came to 6.3 µg/mL. In addition, in data set [5] (Table 2, Aspergillus fumigatus), the “A fu IC50” value came to 3.5 µg/mL.
For `C[n+]1cc2c(c3ccc(C(F)(F)F)cc3n2CCCCCC2CCCCC2)c2ccccc21.[I-]` [JRE-5-31-1], in data set [1] (Table 3), the “Ca IC50” value came out at 0.80 µg/mL, the “Ca MFC” value is recorded as “— ((-) = >20 μg/mL)” and the “Ca MIC” value came to 1.3 µg/mL. Further, the “TC50 Vero Cells” value in data set [2] (Table 3) is over 10 µg/mL. Besides, in data set [3] (Table 3), the “Cn IC50” value was 0.85 µg/mL, the “Cn MFC” value turned out to be 2.5 µg/mL and the “Cn MIC” value is 1.3 µg/mL. Also, in data set [4] (Table 3), the “MRSA IC50” value amounted to 0.70 µg/mL, the “MRSA MFC” value worked out at 1.3 µg/mL and the “MRSA MIC” value turned out to be 1.3 µg/mL. For the same compound, in data set [5], the “A fu MFC” value turned out to be 10 µg/mL and the “A fu MIC” value was 5.0 µg/mL. For the same compound, the “A fu IC50” value in data set [5] (Table 3, Aspergillus fumigatus) came out at 1.5 µg/mL.
Regarding `Clc1ccc(Nc2cc3ccccc3[n+](CCCCCC3CCCCC3)c2)cc1.[I-]` [JRE-2-83-1], in data set [1] (Table 2), the “Ca IC50” value stood at 2.0 µg/mL, the “Ca MFC” value was “— ((-) = >20 μg/mL)” and the “Ca MIC” value came out at 25 µg/mL. Also, the “TC50 Vero Cells” value in data set [2] (Table 2) worked out at 12.5 µg/mL. Further, in data set [3] (Table 2), the “Cn IC50” value stood at 1.0 µg/mL, the “Cn MFC” value is given as “— ((-) = >20 μg/mL)” and the “Cn MIC” value was determined as 1.6 µg/mL. Also, in data set [4] (Table 2), the “MRSA IC50” value is 0.50 µg/mL, the “MRSA MFC” value stood at 1.6 µg/mL and the “MRSA MIC” value was 0.78 µg/mL. Also, the “A fu IC50” value in data set [5] (Table 2, Aspergillus fumigatus) was “— ((-) = >20 μg/mL)”.
Take `C[C@@H]1[C@H](O)[C@@H](C)/C=C/C=C/C=C/C=C/C=C/C=C/C=C/[C@H](O[C@@H]2O[C@H](C)[C@@H](O)[C@H](N)[C@@H]2O)C[C@@H]2O[C@](O)(C[C@@H](O)C[C@@H](O)[C@H](O)CC[C@@H](O)C[C@@H](O)CC(=O)O[C@H]1C)C[C@H](O)[C@H]2C(=O)O` [Amph B, Amphotericin B, reference compound]: the “Ca IC50” value in data set [1] (Table 1), in data set [1] (Table 2) and in data set [1] (Table 3) was 0.25 µg/mL throughout. Further, the “Ca MFC” value in data set [1] (Table 1), in data set [1] (Table 2) and in data set [1] (Table 3) was 1.3 µg/mL each time. For the same compound, the “Ca MIC” value in data set [1] (Table 1), in data set [1] (Table 2) and in data set [1] (Table 3) was 0.63 µg/mL throughout. Besides, the “TC50 Vero Cells” value in data set [2] (Table 1), in data set [2] (Table 2) and in data set [2] (Table 3) was 6.5 µg/mL (≈ 7.03 µM) throughout. In addition, the “Cn IC50” value in data set [3] (Table 1), in data set [3] (Table 2) and in data set [3] (Table 3) was 0.85 µg/mL throughout. Also, the “Cn MFC” value in data set [3] (Table 1), in data set [3] (Table 2) and in data set [3] (Table 3) was 2.5 µg/mL throughout. Besides, the “Cn MIC” value in data set [3] (Table 1), in data set [3] (Table 2) and in data set [3] (Table 3) was 2.5 µg/mL throughout. Moreover, in data set [5], the “A fu MFC” value came to 2.5 µg/mL. Besides, the “A fu MIC” value in data set [5] amounted to 2.5 µg/mL. Besides, the “A fu IC50” value in data set [5] (Table 1, Aspergillus fumigatus) amounted to 0.90 µg/mL; in data set [5] (Table 2, Aspergillus fumigatus) it was 0.90 µg/mL; in data set [5] (Table 3, Aspergillus fumigatus), 0.90 µg/mL.
Take `O=C(O)c1cn(C2CC2)c2cc(N3CCNCC3)c(F)cc2c1=O` [Cipro, Ciprofloxacin, reference compound]: the “TC50 Vero Cells” value in data set [2] (Table 3) was over 10 µg/mL. For the same compound, the IC50 in data set [4] (Staphylococcus aureus, Table 3, read-out: MRSA IC50) was found to be 0.09 µg/mL (≈ 0.272 µM). Also, the MFC in data set [4] (Staphylococcus aureus, Table 3, read-out: MRSA MFC) is over 20 µg/mL. Besides, the MIC in data set [4] (Staphylococcus aureus, Table 3, read-out: MRSA MIC) is 0.5 µg/mL (≈ 1.51 µM).
`FC(F)(F)c1ccc(Sc2cc3ccccc3[n+](CCCCCc3ccccc3)c2)cc1.[I-]` [XYZ-III-66]: in data set [1] (Table 1), the “Ca IC50” value was determined as 5.5 µg/mL, the “Ca MFC” value is “— ((-) = >20 μg/mL)” and the “Ca MIC” value was determined as 10 µg/mL. Further, the “TC50 Vero Cells” value in data set [2] (Table 1) was “NC (NC = Not toxic at 10 μg/mL)”. Also, in data set [3] (Table 1), the “Cn IC50” value was determined as 2.0 µg/mL, the “Cn MFC” value came to 10 µg/mL and the “Cn MIC” value was found to be 5.0 µg/mL. In addition, in data set [5] (Table 1, Aspergillus fumigatus), the “A fu IC50” value was 3.0 µg/mL, the “A fu MFC” value is reported as “— ((-) = >20 μg/mL)” and the “A fu MIC” value was 5.0 µg/mL.
On to `C[n+]1cc(Sc2ccc(F)cc2)cc2ccccc21.[I-]` [XYZ-III-62], for which, in data set [1] (Table 1), the “Ca IC50” value is given as “— ((-) = >20 μg/mL)”, the “Ca MFC” value was “— ((-) = >20 μg/mL)” and the “Ca MIC” value is listed as “— ((-) = >20 μg/mL)”. In data set [3] (Table 1), the “Cn IC50” value is on record as “— ((-) = >20 μg/mL)”, the “Cn MFC” value is reported as “— ((-) = >20 μg/mL)” and the “Cn MIC” value is on record as “— ((-) = >20 μg/mL)”. Further, in data set [4], the “MRS IC50” value was “— ((-) = >20 μg/mL)”, the “MRS MFC” value is “— ((-) = >20 μg/mL)” and the “MRS MIC” value was “— ((-) = >20 μg/mL)”. For the same compound, in data set [5] (Table 1, Aspergillus fumigatus), the “A fu IC50” value is “— ((-) = >20 μg/mL)”, the “A fu MFC” value is recorded as “— ((-) = >20 μg/mL)” and the “A fu MIC” value is “— ((-) = >20 μg/mL)”.

The IC50 is the concentration needed to halve the response being measured. A word on the MIC: it is the lowest concentration found to suppress growth.
